Assay results: US20250230226A1, “PLXDC1/PLXDC2 ACTIVATORS AND THEIR USE IN THE TREATMENT OF BLOOD VESSEL DISORDERS” (THE REGENTS OF THE UNIVERSITY OF CALIFORNIA, priority 2019, published 2025)

Columns and labels:
[1] = system: CT26.CL25 colon cancer tumor endothelial cells; assay: Colon CT26 ex vivo model of tumor angiogenesis; assay type: cell-based, mouse; settings: for cytotoxicity at 40 µM / cytotoxicity at 10 µM: Mus musculus, Endothelial cell, 48 h, read-out: Cell death
Method: An ex vivo tumor angiogenesis model was developed to test the efficacy of anti-cancer candidate agents. The following protocol describes the Ex Vivo Tumor Angiogenesis Model.
• 1. The day before the experiment, all necessary tools were sprayed with 70% ethanol and sterilized under UV light overnight, including blade, dissecting and micro-dissecting scissors and […]. 24-well dishes were placed at 4° C. to pre-chill plates and Matrigel was thawed, 24 hours before tumor dissection. • 2. 70% ethanol was sprayed on working bench. Two sterile petri dishes were prepared with 10 ml sterile PBS. The following steps 3 and 4 are necessary for mouse tumor models. For fresh human tumor, steps 3 and 4 are skipped. • 3. The tumor-bearing mice were euthanized. 70% ethanol was sprayed on the mouse and the tumor was removed using sterilized dissecting tools (avoid the fur). The tumor was rinsed in petri dish with sterile PBS to remove ethanol and fur. The tumor was transferred to a new petri dish with PBS for dissection. The dish is placed on ice. • 4. Pre-chilled sterile pipet tips were used to seed regular Matrigel in 24 well plates on ice. Matrigel (30 μl) was dropped in the middle of each well without touching the edge of the well (avoid introducing bubbles if possible). • 5. The tumor was cut in halves using the sterile blade. Healthy tumor tissue that is not necrotic and is within the tumor capsule was identified and isolated. The healthy tumor tissue was cut into small pieces. For instance, a suitable size for the tumor tissue is 0.5 mm (H)×0.5 mm (L)×0.3 mm (D) with a total volume of 0.075 mm^3. • 6. Each tumor piece was gently transferred and embedded in the Matrigel drop in the 24-well plate. The embedded piece was placed in the bottom and middle of each Matrigel drop. The plate was kept on ice all the time. • 7. After seeding the tumor pieces, plates were incubated in a 37° C. cell culture incubator without medium for 10 minutes in order for the Matrigel to solidify. • 8. Endothelial Growth Medium (0.5 ml) was added to each well and incubated at 37° C. with 5% CO2. Treatment was not added until the new endothelial cells was grown out of the tumor or were larger than 3 mm in diameter. This usually takes 4 days for the LL2 Lewis lung cancer model and 7 days for the CT26 colon cancer model. For human tumor models, the growth time is typically 2-3 weeks, depending on the tumor type. Media was changed every 4 days during prolonged culture. Typically, when the tumor tissue grows to 2 mm in diameter, it was good for drug testing. A size of about 3 mm in diameter can make visualization easier. • 9. When the assay was ready to be analyzed for cell death (e.g., 48 hours after drug addition), the dye mixture was prepared by mixing 6 μl of green dye to stain live cells (5 mg/ml Fluorescein diacetate or FDA in DMSO) with 30 μl of red dye (2.5 mg/ml Propidium iodide or PI in PBS) to stain dead cells in an Eppendorf tube. The FDA dye needs to be stored frozen in a −20° C. freezer because it has a labile ester bond. • 10. 1 μl of the dye mixture was added to each well of the 24-well dish. It is usually preferred to do one 24-well dish at a time given the amount of time needed to take pictures (the green dye is not as stable in the cells in the long term). • 11. The dish was gently rocked a few times to mix the dye with the media in the wells and incubate the dish at 37° C. for 10 min (too long incubation can make the green signal too intense). • 12. Each well was washed with 0.5 ml of sterile PBS and then 0.5 ml of phenol red free SFM was added to each well. Alternatively 0.5 ml of regular Endothelial Cell Growth Media can be added to each well if this well needs to be continuously maintained after the experiment. • 13. An inverted microscope using the 2× objective lens was used to observe morphological changes in the experimental wells. • 14. […]

[2] = system: LL/2 lung cancer tumor endothelial cells; assay: Lung LL2 ex vivo model of tumor angiogenesis; assay type: cell-based, mouse; settings: for Cell death: drug treatment for two days, ratio of red area to total endothelial cell area; for 48 hrs (morphology observations): LL/2 tumor endothelial cells
Procedure, shortened: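 Live/dead imaging with FDA and PI, taken e.g. 48 h post-drug under fixed channel settings, measures treatment effects on endothelial cells sprouting from Lewis lung tumor explants. Explants were seeded in Matrigel drops and grown ~4 days in endothelial growth medium, 37 °C, 5% CO2, before dosing.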

[3] = Mus musculus, Endothelial cell, 48 h, read-out: Cell death

SMILES | 48 hrs (morphology observations after 48 hours) ([1]; Conc. 40 μm) | cytotoxicity at 40 µM [1] [%] | Cell death ([2]; 40 μm) [%] | 48 hrs (morphology observations) ([2]; 40 μm) | other results
CCc1ccc(S(=O)(=O)c2cnc3ccc(OC(F)(F)F)cc3c2N2CCC3(CC2)OCCO3)cc1 [Compound 52] | 0 | 0 | 50 |  | 
N#Cc1ccc(S(=O)(=O)c2cnc3ccc(OC(F)(F)F)cc3c2N2CCC(N3CCCCC3)CC2)cc1 [Compound 54] | 0 | 10 | 50 |  | 
CCc1ccc(S(=O)(=O)c2cnc3ccc(CC#N)cc3c2N2CCC(N3CCCCC3)CC2)cc1 [Compound 55] | 0 | 50 | 70 |  | 
COc1ccc(S(=O)(=O)c2cnc3ccc(OC(F)(F)F)cc3c2N2CCC(N3CCCCC3)CC2)cc1OC [Compound 56] | 0 | 30 | 20 | * (50% or less of cells vesicularize in cell shape) | 
COc1ccc(S(=O)(=O)c2cnc3ccc(OC(F)(F)F)cc3c2N2CCCN(C)CC2)cc1OC [Compound 57] | * (50% or less of cells vesicularize in cell shape) | 60 | 40 | 0 | 
COc1ccc(S(=O)(=O)c2cnc3ccc(OC(F)(F)F)cc3c2N2CCC(O)CC2)cc1OC [Compound 58] | * (50% or less of cells vesicularize in cell shape) | 50 |  | 0 | cytotoxicity at 40 µM [2, 3]: 50%
O=[N+]([O-])c1ccc(S(=O)(=O)c2cnc3ccc(OC(F)(F)F)cc3c2N2CCC(N3CCCCC3)CC2)cc1 [Compound 59] | 0 | 50 | 40 |  | 
O=[N+]([O-])c1ccc(S(=O)(=O)c2cnc3ccc(OC(F)(F)F)cc3c2N2CCC(O)CC2)cc1 [Compound 61] | 0 | 20 | 50 |  | 
CCOC(=O)c1ccc2ncc(S(=O)(=O)c3ccc(CC)cc3)c(N3CCC(O)CC3)c2c1 [Compound 62] | ** (more than 50% but less than 100% of endothelial cells vesicularize in cell shape) | 70 | 30 | *** (more than 50% but less than 100% of endothelial cells vesicularize in cell shape) | 
CCOC(=O)c1ccc2ncc(S(=O)(=O)c3ccc(CC)cc3)c(N3CCCN(C)CC3)c2c1 [Compound 63] | *** (100% of endothelial cells vesicularize in cell shape) | 70 | 50 |  | 
CCOC(=O)c1ccc2ncc(S(=O)(=O)c3ccc(CC)cc3)c(N3CCC(N4CCCCC4)CC3)c2c1 [Compound 64] | *** (100% of endothelial cells vesicularize in cell shape) | 100 |  | *** (more than 50% but less than 100% of endothelial cells vesicularize in cell shape) | cytotoxicity at 40 µM [2, 3]: 100%
CCc1ccc(S(=O)(=O)c2cnc3ccc(C(=O)O)cc3c2N2CCC(O)CC2)cc1 [Compound 65] | 0 | 0 | 10 |  | 
CCc1ccc(S(=O)(=O)c2cnc3ccc(C(=O)O)cc3c2N2CCCN(C)CC2)cc1 [Compound 66] | 0 | 0 | 10 |  | 
CCc1ccc(S(=O)(=O)c2cnc3ccc(C(=O)O)cc3c2N2CCC(N3CCCCC3)CC2)cc1 [Compound 67] | 0 | 0 | 10 |  | 
CCN(CC)c1c(S(=O)(=O)c2ccc(OC)c(OC)c2)cnc2ccc(OC(F)(F)F)cc12 [Compound 68] | ** (more than 50% but less than 100% of endothelial cells vesicularize in cell shape) | 50 | 80 | *** (more than 50% but less than 100% of endothelial cells vesicularize in cell shape) | 
COc1ccc(S(=O)(=O)c2cnc3ccc(OC(F)(F)F)cc3c2NCCO)cc1OC [Compound 69] | 0 | 0 |  | 0 | cytotoxicity at 40 µM [2, 3]: 20%
COc1ccc(S(=O)(=O)c2cnc3ccc(OC(F)(F)F)cc3c2N2CCCC(O)C2)cc1OC (stereo not drawn) [Compound 70] | 0 | 10 | 40 | *** (more than 50% but less than 100% of endothelial cells vesicularize in cell shape) | 
CCCN(CCC)c1c(S(=O)(=O)c2ccc(OC)c(OC)c2)cnc2ccc(OC(F)(F)F)cc12 [Compound 71] | 0 | 0 | 10 | * (50% or less of cells vesicularize in cell shape) | 
COc1ccc(S(=O)(=O)c2cnc3ccc(OC(F)(F)F)cc3c2N(CCO)CCO)cc1OC [Compound 72] | 0 | 0 | 20 |  | 
CCCCN(CCCC)c1c(S(=O)(=O)c2ccc(OC)c(OC)c2)cnc2ccc(OC(F)(F)F)cc12 [Compound 74] | *** (100% of endothelial cells vesicularize in cell shape) | 100 | 60 | *** (more than 50% but less than 100% of endothelial cells vesicularize in cell shape) | 
CCc1ccc(S(=O)(=O)c2cnc3ccc([N+](=O)[O-])cc3c2N2CCC(O)CC2)cc1 [Compound 75] | 0 | 0 | 80 |  | 
CCc1ccc(S(=O)(=O)c2cnc3ccc([N+](=O)[O-])cc3c2N2CCCN(C)CC2)cc1 [Compound 76] | ** (more than 50% but less than 100% of endothelial cells vesicularize in cell shape) | 100 | 20 | 0 | 
CCc1ccc(S(=O)(=O)c2cnc3ccc([N+](=O)[O-])cc3c2N2CCC(N3CCCCC3)CC2)cc1 [Compound 77] | 0 | 40 | 80 |  | 
CCc1ccc(S(=O)(=O)c2cnc3ccc([N+](=O)[O-])cc3c2N(CC)CC)cc1 [Compound 78] | 0 | 0 | 40 |  | 
CCc1ccc(S(=O)(=O)c2cnc3ccc(OC)cc3c2-n2cncn2)cc1 [Compound 79] |  |  |  |  | 48 hrs (morphology observations after 48 hours) ([1]; Conc. 10 μm): *** (100% of endothelial cells vesicularize in cell shape); cytotoxicity at 10 µM [1]: 100%; Cell death ([2]; 20 μm): 20%
CCOC(=O)c1ccc2ncc(S(=O)(=O)c3ccc(CC)cc3)c(-n3cncn3)c2c1 [Compound 80] |  |  |  |  | 48 hrs (morphology observations after 48 hours) ([1]; Conc. 10 μm): *** (100% of endothelial cells vesicularize in cell shape); cytotoxicity at 10 µM [1]: 100%; 48 hrs (morphology observations) ([2]; 20 μm): *** (more than 50% but less than 100% of endothelial cells vesicularize in cell shape); cytotoxicity at 20 µM [2, 3]: 100%
CCc1ccc(S(=O)(=O)c2cnc3ccc(OC(F)(F)F)cc3c2N(CC)CC)cc1 [Compound 81] | 0 | 0 |  |  | cytotoxicity at 40 µM [2, 3]: 0%
